Measured values: the METLIN SMRT retention time set (Domingo-Almenara et al. 2019)

Assay: gradient 5% acetonitrile 3 min, to 50% in 2 min, to 85% in 15 min, held 3 min, 100 µL/min
Settings: column: Zorbax Extend-C18 2.1 x 50 mm; eluents: water / acetonitrile, 0.1% formic acid
Outline: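 A Zorbax Extend-C18 column (2.1 × 50 mm, 1.8 μm) run at 100 μL/min with water and acetonitrile, both containing 0.1% formic acid, separated mixtures of ~100 pure standards. The HPLC was coupled to a quadrupole time-of-flight mass spectrometer operated in positive and negative ionization mode, with dead and dwell volumes of 40 μL and 900 μL. Each retention time was taken from a computationally picked adduct peak that was then manually inspected.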

Compound | RP-LC retention time [s]
CCC(C)NC(=O)N1CCC2(CC1)Nc1cc(F)ccc1-n1cccc12 (configuration not stated) | 954
COc1ccc(N2CCN(c3cc(SCC(=O)NCc4ccccc4)ncn3)CC2)cc1 | 823
O=C1CC(c2cccc(Cl)c2)Cc2nc(N3CCN(c4ccccc4)CC3)ncc21 (configuration not stated) | 1340
COC(=O)CNC(=O)N1CCCCCC1c1cccc(C)c1 (configuration not stated) | 840
COc1cc(-c2ccnc3nc(Cc4ccc(F)cc4)nn23)cc(OC)c1OC | 695
O=C(N1CCC(NS(=O)(=O)c2cccc(F)c2)CC1)N1C[C@H]2C[C@H](C1)[C@H]1CCCC(=O)N1C2 | 704
Cc1noc2ncnc(N3CCCC(C(=O)N4CCN(C5CCCCC5)CC4)C3)c12 (configuration not stated) | 594
CCSc1nnc(NC(=O)Cc2csc(NC(=O)c3cnccn3)n2)s1 | 678
O=C(NC1CC1)C1CCc2sc(C(=O)N3CCCCCC3)cc2C1 (configuration not stated) | 736
O=C(NCCc1c[nH]c2ccc(Cl)cc12)c1ccc(CN2C(=O)CCn3nccc32)cc1 | 768
Cc1c(N2CCN(C(=O)c3cccc(F)c3)CC2)c(=O)n(C)c(=O)n1C | 698
Cc1ccc(CSc2nc(CC(=O)Nc3ccc(-n4cnnn4)cc3)cs2)cc1 | 868
CC(C)n1cnc2ccc(-c3noc(CCc4ccccc4)n3)cc21 | 797
CC1CCN(C(=O)c2ccc(OCC3CCCN(C(=O)C4CCCO4)C3)cc2)CC1 (configuration not stated) | 829
O=C1CN(S(=O)(=O)c2ccc(Cl)s2)CC2(CCCCC2)N1Cc1ccccc1 | 1180
O=C(CN1C(=O)C2CCCCN2c2ccc(C(=O)N3CCCC3)cc21)Nc1ccncc1 (configuration not stated) | 622
FC1(c2nc(Cc3ccccc3)no2)CCN(Cc2ccsc2)CC1 | 708
CCc1cccc(C)c1NC(=O)Cn1nc2c3cccc(C)c3ncn2c1=O | 615
O=C(Nc1ccc(Cl)cc1)C(=O)c1cn(CC(=O)N2CCOCC2)c2ccccc12 | 959
O=C(C1CC1)N1CCN(c2nc(CN3CCCCCC3)cs2)CC1 | 1100
CCNC(=O)C1CCCN(c2nc3ncn(CC(=O)Nc4ccc(F)cc4F)c(=O)c3s2)C1 (configuration not stated) | 670
Cc1ccccc1CNC(=O)c1c(C)sc2ccn(CC(C)C)c(=O)c12 | 1010

Compound | RP-LC retention time [s]
COc1ccc(C2CCN(S(=O)(=O)c3cccc(C(F)(F)F)c3)C2)cc1 (configuration not stated) | 1060
COCC1CN(Cc2cc3ccc(C)cc3[nH]c2=O)CCC1(F)F (configuration not stated) | 629
COc1ccc(Cl)c(Cn2c(NCC3CCCO3)nc3c2c(=O)n(C)c(=O)n3C)c1 (configuration not stated) | 801
Cc1ccnc(N2CCCC(C(=O)NCC3CCN(Cc4ccccc4F)CC3)C2)n1 (configuration not stated) | 608
Cc1nc2cc(N3CCC(C(=O)NCc4ccc5c(c4)OCO5)CC3)cnc2nc1C | 699
COc1ccc2c(c1)C1(CCN(S(=O)(=O)c3ccc(Br)cc3)C1)C(=O)N2C (configuration not stated) | 986
O=C(c1ccc(-c2ccc(N3CCCCC3)nc2)cc1)N1CCOCC1 | 607
Cc1cccc(CC(=O)N2C[C@@H]3C[C@H](NC(=O)c4ccccc4)[C@H]2C3)c1 | 794
CCN1CCN(c2cc(C)c3cc(NC(=O)/C=C/c4ccc(OC(C)C)cc4)ccc3n2)CC1 | 646
Cc1oc2ncn(CCC(=O)N3CCN(c4ccccn4)CC3)c(=O)c2c1C | 573
O=C(CNC(=O)c1cccc(F)c1)Nc1nc2ccccc2[nH]1 | 613
CCc1noc(-c2cnc3nc(C)ccc3c2Nc2ccccc2OC)n1 | 629
Cc1nc(N2CCOCC2)c2c(C(=O)Nc3cccc(F)c3)c(C)oc2n1 | 817
O=C(Nc1cnn(-c2ncc(N3CCSCC3)cn2)c1)C1CCCC1 | 737
COc1ccc(NC(=O)N2CCC(c3nc(C(=O)N(C)C)c(C)o3)CC2)cc1 | 676
CCC1CN2C=Nc3oc(C)c(C(=O)Nc4cccc(Cl)c4C)c3C2=N1 (configuration not stated) | 687
Cc1cccc(N2C(=O)CN(CCCc3ccccc3)[C@H]3CS(=O)(=O)C[C@H]32)c1 | 871
CCOc1ccc(NC(=O)Cn2c(=O)n(-c3ccccc3)c(=O)c3sc(SCC)nc32)cc1 | 981
CN(C)CCNC(=O)C1CCN(S(=O)(=O)c2ccc3c(c2)sc(=O)n3C)CC1 | 606
Cc1ccc(C)c(Nc2nc(-c3ccncc3)nc3ccccc23)c1 | 772
O=C(c1ccc(Cl)c(Cl)c1)N1CCN(Cc2nncn2C2CCCCC2)CC1 | 708
COc1ncc(C(=O)Nc2cccc(Cl)c2)c(C)n1 | 812

Compound | RP-LC retention time [s]
N#Cc1ccccc1NC(=O)c1ccc(N2C(=O)CCC2=O)cc1 | 639
O=C(CSc1ccc(N2CCCC(C(=O)NC3CC3)C2)nn1)Nc1cccc(C(F)(F)F)c1 (configuration not stated) | 687
CN1CCN(C(=O)c2cn(-c3cc(N4CCSCC4)ncn3)cn2)CC1 | 593
COCCNC(=O)C1CCCN1S(=O)(=O)c1cc2c(cc1Cl)NC(=O)CO2 (configuration not stated) | 627
COCCN1CCC2(CC1)CN(Cc1ccc(OC)c(C)c1)Cc1ccccc1O2 | 598
Cn1ncc(N2CCC(C(=O)NCc3nc4ccccc4n3C)C2)cc1=O (configuration not stated) | 569
O=C(COc1ccccc1F)NC1CCCCC1N1C(=O)CSC1=O (configuration not stated) | 768
CCOC(=O)c1ccccc1NC(=O)Cn1c(-c2ccc(F)cc2)nc(C)cc1=O | 1320
O=C(Nc1nc2c(s1)CN(S(=O)(=O)c1ccccc1)CC2)c1ccoc1 | 823
CCOC(=O)C1CCCN(S(=O)(=O)c2cccc3cccnc23)C1 (configuration not stated) | 798
CNC(=O)c1cc(-c2ccc(F)cc2)nc2ccccc12 | 819
CCOc1ccc(NC(=O)Cn2c(=O)n(-c3ccccc3)c(=O)c3c2cc(C)n3C)cc1 | 832
CCN1C(=O)C(CC(=O)NCCCN(C)C)Sc2ncccc21 (configuration not stated) | 559
Brc1cn2c(Nc3ccc4c(c3)OCCO4)c(-c3ccccc3)nc2cn1 | 916
C/C=C(\CCC1NCCc2c1[nH]c1ccccc21)[Si](C)(C)C (configuration not stated) | 815
Cc1ccc(C(=O)N(CC(=O)N(Cc2ccco2)CC2CCCO2)C(C)(C)C)cc1 (configuration not stated) | 907
COc1cc(-c2noc(CN3C(=O)COc4ccc(C)cc43)n2)cc(OC)c1OC | 985
O=C1OC(C(=O)Nc2ccc(F)cc2)Cc2ccc(Cl)cc21 (configuration not stated) | 858
CCn1cc(-c2ccc(Cl)cc2)cc1C(=O)NCc1cccnc1 | 738
CCN1CCCC1CNC(=O)CCC(=O)N1CCCn2nc(-c3cn(C)c4ccccc34)cc21 (configuration not stated) | 620
Cc1sc(-c2nnc(C3CC3)o2)cc1NC(=O)C1CCC1 | 856
CN1C(=O)c2cccnc2Sc2cc(NC(=O)c3ccc(Cl)s3)ccc21 | 870

Compound | RP-LC retention time [s]
O=[N+]([O-])c1ccc(CNc2nc(NCc3cccc(C(F)(F)F)c3)nc3nc[nH]c23)cc1 | 790
COc1ccc(C2(C(=O)Nc3cc(-c4ccsc4)no3)CC2)cc1 | 1030
Cc1ccc([C@@H]2O[C@H](CO)[C@@H](O)[C@H](O)[C@H]2O)cc1Cc1ccc(-c2ccc(F)cc2)s1 | 847
COC(=O)C1=C(N)Oc2cc(C)n(CCN(C)C)c(=O)c2C1c1ccccc1Cl (configuration not stated) | 624
CC1Cc2ccccc2N1C(=O)c1ccc(=O)n(CCC(=O)N2CCN(c3ccccn3)CC2)n1 (configuration not stated) | 629
COc1cccc(-n2c(=O)c(C(=O)Nc3ccc(F)cc3)c(O)c3cccnc32)c1 | 1210
Cc1cc(C(=O)Nc2nc3c(F)cccc3s2)no1 | 780
O=C(NCc1ccc(Cl)cc1)C1CCc2nc(N3CCOCC3)ncc2C1 (configuration not stated) | 704
COc1ccc(OC)c(-c2ccc(SCC(=O)Nc3cc(C)no3)nn2)c1 | 754
Cc1c(C)n(C(=O)CN2CCC(C(N)=O)CC2)c2ccccc12 | 614
Cc1ccc(S(=O)(=O)c2cnc(N3CCC(C(N)=O)(N4CCCCC4)CC3)nc2N)cc1 | 613
CC(C)C(=O)c1cn(CC(=O)COc2ccc(Oc3ccccc3)cc2)c2ccc(C(=O)O)cc12 | 1140
Cn1cnc(S(=O)(=O)NCCc2noc(-c3ccccc3)n2)c1 | 703
COc1ccc(NC(=O)C2CCc3sc(C(=O)N4CCCC4)cc3C2)c(OC)c1 (configuration not stated) | 756
Cc1ccc2c(c1)C(=O)NC1(CCN(C(=O)c3ccc(F)c(F)c3)CC1)N2C | 795
CCCn1c2ccccc2c2cnn(CC(=O)NCCN3CCCCC3C)c(=O)c21 (configuration not stated) | 680
O=C(NCc1ccc2c(c1)OCO2)c1nnc(-c2ccc(S(=O)(=O)N3CCCC3)cc2)o1 | 854
CCN1CCN(c2ncc3c(n2)CCN(Cc2cccc(C)c2)C3)CC1 | 529
CC(C(=O)N1CCN(C2CCCCC2)CC1)C1CCN(S(=O)(=O)c2cccs2)CC1 (configuration not stated) | 664
CCC(C(=O)NCCc1c[nH]c2ccc(Cl)cc12)n1c2ccccc2c2cnn(C)c(=O)c21 (configuration not stated) | 986
COc1ccc(OC)c(NC(=O)N2C[C@@H](F)C[C@H]2C(=O)N2CCCCC2)c1 | 720
